Laboratory results as given in ChEMBL document CHEMBL1123971, “Synthesis, platelet aggregation inhibitory activity, and in vivo antithrombotic activity of new 1,4-dihydropyridines” (J Med Chem, 1988).

How the values were obtained:
[1] = system: Felis catus; experiment: Effect of intravenous infusion on systolic pressure in Anesthetized cats at a dose of 1.50 mg/kg at 10 min; assay type: functional; details: dose 1.5 mg/kg
[2] = species: Cavia porcellus; experiment: Effect on guinea pig artia (beats/min), at the a dose of 10e-7 M; assay type: functional
[3] = species: Cavia porcellus; experiment: Chronotropic activity on left and right guinea pig artia (beats/min), at 120 min; assay type: functional
[4] = species: Cavia porcellus; experiment: Chronotropic activity on left and right guinea pig artia (beats/min), at 150 min; assay type: functional
[5] = system: Felis catus; experiment: Effect of intravenous infusion of compound on diastolic pressure in Anesthetized cats at a dose of 3 mg/kg at 20 min; assay type: functional
[6] = system: Felis catus; experiment: Effect of intraperitoneal infusion on diastolic pressure in Anesthetized cats at a dose of 200 mg/kg at 0 min; assay type: functional
[7] = system: Felis catus; experiment: Effect of intravenous infusion on respiration frequency in Anesthetized cats at a dose of 0.15 mg/kg at 1 min; assay type: functional
[8] = species: Oryctolagus cuniculus; experiment: Effect on 35 mM K+-induced contraction on rabbit aorta at a dose of 10E-6 mol/L; assay type: functional
[9] = species: Oryctolagus cuniculus; experiment: Effect on 35 mM K+-induced contraction on rabbit aorta at a dose of 10E-7 mol/L; assay type: functional
[10] = system: Felis catus; experiment: Effect of intravenous infusion on diastolic pressure in Anesthetized cats at a dose of 3.0 mg/kg at 20 min; assay type: functional
[11] = species: Oryctolagus cuniculus; experiment: Effect on 35 mM K+-induced contraction on rabbit aorta at a dose of 3*10e-6 mol/L; assay type: functional
[12] = system: Felis catus; experiment: Effect of intraperitoneal infusion on respiration frequency in Anesthetized cats at a dose of 200 mg/kg at 15 min; assay type: functional
[13] = species: Oryctolagus cuniculus; experiment: Effect on 35 mM K+-induced contraction on rabbit aorta at a dose of 3*10e-9 mol/L; assay type: functional
[14] = system: Felis catus; experiment: Effect of intravenous infusion on cardiac frequency in Anesthetized cats at a dose of 1.50 mg/kg at 10 min; assay type: functional, Heart; details: dose 1.5 mg/kg
[15] = system: Felis catus; experiment: Effect of intraperitoneal infusion of compound on cardiac frequency in Anesthetized cats at a dose of 200 mg/kg at 105 min; assay type: functional, Heart
[16] = system: Felis catus; experiment: Effect of intraperitoneal infusion on respiration frequency in Anesthetized cats at a dose of 200 mg/kg at 75 min; assay type: functional
[17] = system: Felis catus; experiment: Effect of intraperitoneal infusion on systolic pressure in Anesthetized cats at a dose of 200 mg/kg at 0 min; assay type: functional
[18] = system: Felis catus; experiment: Effect of intravenous infusion on cardiac frequency in Anesthetized cats at a dose of 3 mg/kg at 20 min; assay type: functional, Heart
[19] = system: Felis catus; experiment: Effect of intravenous infusion on respiration frequency in Anesthetized cats at a dose of 3 mg/kg at 20 min; assay type: functional
[20] = system: Felis catus; experiment: Effect of intraperitoneal infusion of compound on cardiac frequency in Anesthetized cats at a dose of 200 mg/kg at 30 min; assay type: functional, Heart
[21] = system: Felis catus; experiment: Effect of intravenous infusion on systolic pressure in Anesthetized cats at a dose of 0.30 mg/kg at 2 min; assay type: functional; details: dose 0.3 mg/kg
[22] = system: Felis catus; experiment: Effect of intraperitoneal infusion on diastolic pressure in Anesthetized cats at a dose of 200 mg/kg at 105 min; assay type: functional
[23] = system: Felis catus; experiment: Effect of intravenous infusion on cardiac frequency in Anesthetized cats at a dose of 0.75 mg/kg at 5 min; assay type: functional, Heart
[24] = system: Felis catus; experiment: Effect of intraperitoneal infusion of compound on cardiac frequency in Anesthetized cats at a dose of 200 mg/kg at 135 min; assay type: functional, Heart
[25] = species: Oryctolagus cuniculus; experiment: Effect on 35 mM K+-induced contraction on rabbit aorta at a dose of 3*10e-8 mol/L; assay type: functional
[26] = species: Oryctolagus cuniculus; experiment: Effect on 35 mM K+-induced contraction on rabbit aorta at a dose of 3*10e-7 mol/L; assay type: functional
[27] = system: Felis catus; experiment: Effect of intraperitoneal infusion on diastolic pressure in Anesthetized cats at a dose of 200 mg/kg at 120 min; assay type: functional
[28] = system: Felis catus; experiment: Effect of intraperitoneal infusion of compound on cardiac frequency in Anesthetized cats at a dose of 200 mg/kg at 15 min; assay type: functional, Heart
[29] = system: Felis catus; experiment: Effect of intraperitoneal infusion on respiration frequency in Anesthetized cats at a dose of 200 mg/kg at 135 min; assay type: functional
[30] = species: Oryctolagus cuniculus; experiment: Effect on 35 mM K+-induced contraction on rabbit aorta at a dose of 10E-8 mol/L; assay type: functional
[31] = species: Cavia porcellus; experiment: Chronotropic activity on left and right guinea pig artia (beats/min), at 30 min; assay type: functional
[32] = system: Felis catus; experiment: Effect of intravenous infusion on systolic pressure in Anesthetized cats at a dose of 0.15 mg/kg at 1 min; assay type: functional
[33] = system: Felis catus; experiment: Effect of intraperitoneal infusion on respiration frequency in Anesthetized cats at a dose of 200 mg/kg at 0 min; assay type: functional
[34] = system: Felis catus; experiment: Effect of intravenous infusion on respiration frequency in Anesthetized cats at a dose of 0.30 mg/kg at 2 min; assay type: functional; details: dose 0.3 mg/kg
[35] = species: Cavia porcellus; experiment: Chronotropic activity on left and right guinea pig artia (beats/min), at 0 min; assay type: functional
[36] = system: Felis catus; experiment: Effect of intraperitoneal infusion on respiration frequency in Anesthetized cats at a dose of 200 mg/kg at 18 0 min; assay type: functional
[37] = system: Felis catus; experiment: Effect of intravenous infusion on diastolic pressure in Anesthetized cats at a dose of 1.50 mg/kg at 10 min; assay type: functional; details: dose 1.5 mg/kg
[38] = system: Felis catus; experiment: Effect of intraperitoneal infusion on systolic pressure in Anesthetized cats at a dose of 200 mg/kg at 120 min; assay type: functional
[39] = system: Felis catus; experiment: Effect of intraperitoneal infusion of compound on cardiac frequency in Anesthetized cats at a dose of 200 mg/kg at 180 mins; assay type: functional, Heart
[40] = system: Felis catus; experiment: Effect of intraperitoneal infusion on systolic pressure in Anesthetized cats at a dose of 200 mg/kg at 165 min; assay type: functional
[41] = system: Felis catus; experiment: Effect of intraperitoneal infusion on diastolic pressure in Anesthetized cats at a dose of 200 mg/kg at 75 min; assay type: functional
[42] = system: Felis catus; experiment: Effect of intraperitoneal infusion on respiration frequency in Anesthetized cats at a dose of 200 mg/kg at 105 min; assay type: functional
[43] = system: Felis catus; experiment: Effect of intraperitoneal infusion on diastolic pressure in Anesthetized cats at a dose of 200 mg/kg at 60 min; assay type: functional
[44] = species: Cavia porcellus; experiment: Effect on guinea pig artia (beats/min), at the a dose of 10e-9 M; assay type: functional
[45] = species: Cavia porcellus; experiment: Chronotropic activity on left and right guinea pig artia (beats/min), at 15 min; assay type: functional
[46] = system: Felis catus; experiment: Effect of intraperitoneal infusion on diastolic pressure in Anesthetized cats at a dose of 200 mg/kg at 150 min; assay type: functional
[47] = system: Felis catus; experiment: Effect of intravenous infusion on diastolic pressure in Anesthetized cats at a dose of 0.15 mg/kg at 1 min; assay type: functional
[48] = system: Felis catus; experiment: Effect of intravenous infusion on systolic pressure in Anesthetized cats at a dose of 0 mg/kg at 0 min; assay type: functional

## CCO/C(O)=C1\C(C)=NC(C)=C(C(=O)OCCN2C(=O)c3ccccc3S2(=O)=O)C1C (stereo not given)
[1]
  Arterial pressure: 160 mmHg
[2]
  Beats/min: 181
  Control: 98.6%
[3]
  Beats/min: 131
  Control: 95.6%
[4]
  Beats/min: 129
  Control: 94.2%
[5]
  Arterial pressure: 110 mmHg
[6]
  Arterial pressure: 85 mmHg
[7]
  Respiratory frequency: 18 r.p.m.
[8]
  Inhibition: 48.13%
[9]
  Inhibition: 12.6%
[10]
  Arterial pressure: 160 mmHg
[11]
  Inhibition: 71.3%
[12]
  Respiratory frequency: 14 r.p.m.
[13]
  Inhibition: 0%
[14]
  Cardiac frequency: 210 beats min-1
[15]
  Cardiac frequency: 259 beats min-1
[16]
  Respiratory frequency: 12 r.p.m.
[17]
  Arterial pressure: 130 mmHg
[18]
  Cardiac frequency: 216 beats min-1
[19]
  Respiratory frequency: 18 r.p.m.
[20]
  Cardiac frequency: 245 beats min-1
[21]
  Arterial pressure: 165 mmHg
[22]
  Arterial pressure: 87 mmHg
[23]
  Cardiac frequency: 195 beats min-1
[24]
  Cardiac frequency: 271 beats min-1
[25]
  Inhibition: 0%
[26]
  Inhibition: 23.89%
[27]
  Arterial pressure: 85 mmHg
[28]
  Cardiac frequency: 254 beats min-1
[29]
  Respiratory frequency: 15 r.p.m.
[30]
  Inhibition: 0%
[31]
  Beats/min: 138
  Control: 100.7%
[32]
  Arterial pressure: 165 mmHg
[33]
  Respiratory frequency: 14 r.p.m.
[34]
  Respiratory frequency: 18 r.p.m.
[35]
  Beats/min: 137
  Control: 100%
[36]
  Respiratory frequency: 15 r.p.m.
[37]
  Arterial pressure: 110 mmHg
[38]
  Arterial pressure: 145 mmHg
[39]
  Cardiac frequency: 276 beats min-1
[40]
  Arterial pressure: 142 mmHg
[41]
  Arterial pressure: 90 mmHg
[42]
  Respiratory frequency: 12 r.p.m.
[43]
  Arterial pressure: 85 mmHg
[44]
  Beats/min: 193
  Control: 105.6%
[45]
  Beats/min: 138
  Control: 100.7%
[46]
  Arterial pressure: 80 mmHg
[47]
  Arterial pressure: 115 mmHg
[48]
  Arterial pressure: 165 mmHg
